# Test results published in patent US20130225591A1, “IMIDOTHIAZOLE KINASE INHIBITORS” (priority 2009, published 2013).
# Target: T1, CDK5-p25 kinase (Homo sapiens, UniProt Q00535)
# T1 construct: purchased Invitrogen PV4677
# Experiment: CDK5-p25 kinase enzymatic assay
# Type: biochemical
# Settings: 50 nM-99 nM; 5 uM ATP, 0.3 nM CDK5-p25; read-out: IC50 potency, CDK5-p25 kinase enzymatic assay, 50 nM-99 nM
# Procedure: CDK5-p25 kinase (Invitrogen PV4677) enzymatic activity was measured using electrophoretic separation and fluorescent detection to monitor phosphorylation of a fluorescently labeled histone H1-derived peptide substrate, FL29 (5-FAM-GGGPATPKKAKKL-CONH2, Caliper #760429)
# First, 0.25 uL of serially diluted compound in DMSO at 100× concentration was transferred into each well of a 384-well polystyrene assay plate. To this was added 15 uL of a 1.67× enzyme solution (500 pM enzyme, 1 mM DTT (Sigma D9779), 1× reconstitution buffer with protease inhibitor (Caliper #700329 proprietary formulation)), followed by centrifugation for 1 min at 1000 rpm, and incubation for 5-15 min at room temperature to allow binding of compound to enzyme. To initiate the reaction, 10 uL of substrate/ATP mix (245 mM Hepes pH 7.5, 0.003% Brij 35, 0.004% Tween, 12.75 uM ATP, 3.75 uM FL29 peptide) were added to each well, followed by centrifugation at 1000 rpm for 1 min. The reaction was then incubated at room temperature for 30 min. Final assay conditions were: 0.3 nM CDK5-p25, 1.5 uM peptide, 5 uM ATP, 0.6 mM DTT, 1% DMSO, 98 mM HEPES pH 7.5.
# After incubation, reactions were quenched by the addition of 45 uL Caliper termination solution (Caliper proprietary formula), followed by centrifugation at 1000 rpm for 1 min. Extent of reaction (percentage conversion of substrate to phosphorylated product) was then measured using the Caliper EZ II reader. Dose-response curves were created by plotting the inhibition of enzyme activity (normalized relative to vehicle treated and no ATP control reactions) as a function of the log of compound concentration. The curve was analyzed using a four parameter logistical fit to calculate IC50 values.
# T1 sequence (Q00535 whole entry): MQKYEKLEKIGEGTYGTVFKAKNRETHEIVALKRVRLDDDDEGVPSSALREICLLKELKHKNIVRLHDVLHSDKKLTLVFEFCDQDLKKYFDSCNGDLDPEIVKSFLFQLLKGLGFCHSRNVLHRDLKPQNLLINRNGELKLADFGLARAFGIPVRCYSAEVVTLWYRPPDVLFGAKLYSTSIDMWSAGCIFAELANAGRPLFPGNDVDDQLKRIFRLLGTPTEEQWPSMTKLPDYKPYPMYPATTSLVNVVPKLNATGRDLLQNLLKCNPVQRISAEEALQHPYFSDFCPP
# T1 sequence (Q15078 99-307 partner limits assumed): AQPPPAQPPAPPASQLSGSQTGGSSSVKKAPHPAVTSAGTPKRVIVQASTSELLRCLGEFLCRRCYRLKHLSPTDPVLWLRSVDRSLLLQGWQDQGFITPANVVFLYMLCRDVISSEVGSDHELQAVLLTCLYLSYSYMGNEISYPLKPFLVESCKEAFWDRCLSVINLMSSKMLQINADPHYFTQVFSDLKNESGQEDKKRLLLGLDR
row,IC50 [nM],Structure (SMILES)
1,50 to 99,"O=C(Cc1ccc2c(c1)OCO2)Nc1ncn2c(C(F)(F)F)csc12 [Example 30, 2-(1,3-benzodioxol-5-yl)-N-[3-(trifluoromethyl)imidazo[5,1-b][1,3]thiazol-7-yl]acetamide]"
2,50 to 99,"O=C(Cc1ccc(-c2ccncc2)cc1)Nc1ncn2c(C(F)(F)F)csc12 [Example 12, 2-(4-pyridin-4-ylphenyl)-N-[3-(trifluoromethyl)imidazo[5,1-b][1,3]thiazol-7-yl]acetamide]"
3,50 to 99,"CC(C(=O)Nc1ncn2c(C(F)(F)F)csc12)c1ccc2ncccc2c1 (stereo not shown) [Example 39, 2-quinolin-6-yl-N-[3-(trifluoromethyl)imidazo[5,1-b][1,3]thiazol-7-yl]propanamide]"
4,50 to 99,"O=C(Cc1ccc(-c2ccnnc2)cc1)Nc1ncn2c(C(F)(F)F)csc12 [Example 26, 2-(4-pyridazin-4-ylphenyl)-N-[3-(trifluoromethyl)imidazo[5,1-b][1,3]thiazol-7-yl]acetamide]"
5,50 to 99,"O=C(Nc1ncn2c(C(F)(F)F)csc12)C(Cl)c1ccc2ccccc2c1 (single isomer, unassigned) [Example 45, (R or S)-2-chloro-2-(2-naphthyl)-N-[3-(trifluoromethyl)imidazo[5,1-b][1,3]thiazol-7-yl]acetamide]"
6,50 to 99,"Nc1cc(Nc2cccc(CC(=O)Nc3ncn4c(C(F)(F)F)csc34)c2)ccn1 [Example 49, 2-{3-[(2-aminopyridin-4-yl)amino]phenyl}-N-[3-(trifluoromethyl)imidazo[5,1-b][1,3]thiazol-7-yl]acetamide]"
7,50 to 99,"O=C(Nc1ncn2c(C(F)(F)F)csc12)C(O)c1ccc2ccccc2c1 (single isomer, unassigned) [Example 44, (R or S)-2-hydroxy-2-(2-naphthyl)-N-[3-(trifluoromethyl)imidazo[5,1-b][1,3]thiazol-7-yl]acetamide]"
8,50 to 99,"O=C(Cc1ccc(-n2ccnc2)cc1)Nc1ncn2c(C(F)(F)F)csc12 [Example 23, 2-[4-(1H-imidazol-1-yl)phenyl]-N-[3-(trifluoromethyl)imidazo[5,1-b][1,3]thiazol-7-yl]acetamide]"
9,50 to 99,"O=C(Cc1ccc(CO)cc1)Nc1ncn2c(C(F)(F)F)csc12 [Example 71, 2-[4-(hydroxymethyl)phenyl]-N-[3-(trifluoromethyl)imidazo[5,1-b][1,3]thiazol-7-yl]acetamide]"
10,50 to 99,"O=C(Cc1ccc(N2CCCC2=O)cc1)Nc1ncn2c(C(F)(F)F)csc12 [Example 17, 2-[4-(2-oxopyrrolidin-1-yl)phenyl]-N-[3-(trifluoromethyl)imidazo[5,1-b][1,3]thiazol-7-yl]acetamide]"
11,50 to 99,"C[C@H](C(=O)Nc1ncn2c(C(F)(F)F)csc12)c1ccc2ccccc2c1 [Example 36, (2S)-2-(2-naphthyl)-N-[3-(trifluoromethyl)imidazo[5,1-b][1,3]thiazol-7-yl]propanamide]"

# Same assay, conditions: 500 nM-3 μM; 5 uM ATP, 0.3 nM CDK5-p25; read-out: IC50 potency, CDK5-p25 kinase enzymatic assay, 500 nM-3 μM
row,IC50 [nM],Structure (SMILES)
1,500 to 3000,"O=C(Cc1ccc2ccccc2c1)Nc1ncn2ccsc12 [Example 82, N-imidazo[5,1-b][1,3]thiazol-7-yl-2-(2-naphthyl)acetamide]"
2,500 to 3000,"NC(C(=O)Nc1ncn2c(C(F)(F)F)csc12)c1ccc2ccccc2c1 (stereo not shown) [Example 15, 2-amino-2-(2-naphthyl)-N-[3-(trifluoromethyl)imidazo[5,1-b][1,3]thiazol-7-yl]acetamide]"
3,500 to 3000,"O=C(Cc1cn2cccnc2n1)Nc1ncn2c(C(F)(F)F)csc12 [Example 28, 2-imidazo[1,2-a]pyrimidin-2-yl-N-[3-(trifluoromethyl)imidazo[5,1-b][1,3]thiazol-7-yl]acetamide]"

# Same assay, conditions: 5 uM ATP, 0.3 nM CDK5-p25; read-out: IC50 potency, CDK5-p25 kinase enzymatic assay, 100 nM-499 nM
row,IC50 [nM],Structure (SMILES)
1,100 to 499,"N[C@H]1CC[C@H](CC(=O)Nc2ncn3c(C(F)(F)F)csc23)CC1 [Example 25, 2-(trans-4-amino-cyclohexyl)-N-[3-(trifluoromethyl)imidazo[5,1-b][1,3]thiazol-7-yl]acetamide]"
2,100 to 499,"Cc1cc(CC(=O)Nc2ncn3c(C(F)(F)F)csc23)on1 [Example 22, 2-(3-methylisoxazol-5-yl)-N-[3-(trifluoromethyl)imidazo[5,1-b][1,3]thiazol-7-yl]acetamide]"
3,100 to 499,"CC(C(=O)Nc1ncn2c(C(F)(F)F)csc12)c1ccc2ccccc2c1 (stereo not shown) [Example 34, 2-(2-naphthyl)-N-[3-(trifluoromethyl)imidazo[5,1-b][1,3]thiazol-7-yl]propanamide]"
4,100 to 499,"O=C(Cc1cncnc1)Nc1ncn2c(C(F)(F)F)csc12 [Example 32, 2-pyrimidin-5-yl-N-[3-(trifluoromethyl)imidazo[5,1-b][1,3]thiazol-7-yl]acetamide]"
5,100 to 499,"NCc1cccc(CC(=O)Nc2ncn3c(C(F)(F)F)csc23)c1 [Example 75, 2-[3-(aminomethyl)phenyl]-N-[3-(trifluoromethyl)imidazo[5,1-b][1,3]thiazol-7-yl]acetamide]"
6,100 to 499,"Cc1cnc(-c2ccc(CC(=O)Nc3ncn4c(C(F)(F)F)csc34)cc2)cn1 [Example 51, 2-[4-(5-methylpyrazin-2-yl)phenyl]-N-[3-(trifluoromethyl)imidazo[5,1-b][1,3]thiazol-7-yl]acetamide]"

# Same assay, conditions: '<50 nM'; 5 uM ATP, 0.3 nM CDK5-p25; read-out: IC50 potency, CDK5-p25 kinase enzymatic assay, <50 nM
row,IC50 [nM],Structure (SMILES)
1,< 50,"O=C(Cc1ccc2ccccc2c1)Nc1ncn2ccsc12 [Example 82, N-imidazo[5,1-b][1,3]thiazol-7-yl-2-(2-naphthyl)acetamide]"
2,< 50,"C[C@H](C(=O)Nc1ncn2c(C(F)(F)F)csc12)c1ccc2ncccc2c1 [Example 46, (2S)-2-quinolin-6-yl-N-[3-(trifluoromethyl)imidazo[5,1-b][1,3]thiazol-7-yl]propanamide]"
3,< 50,"O=C(Cc1ccc(Cl)cc1)Nc1ncn2c(C(F)(F)F)csc12 [Example 43, 2-(4-chlorophenyl)-N-[3-(trifluoromethyl)imidazo[5,1-b][1,3]thiazol-7-yl]acetamide]"
4,< 50,"O=C(Cc1ccc2ccccc2c1)Nc1ncn2c(Br)csc12 [Example 83, N-(3-Bromoimidazo[5,1-b][1,3]thiazol-7-yl)-2-(naphthalen-2-yl)acetamide]"
5,< 50,"O=C(Cc1cccc(-c2ccccn2)c1)Nc1ncn2c(C(F)(F)F)csc12 [Example 56, 2-(3-pyridin-2-ylphenyl)-N-[3-(trifluoromethyl)imidazo[5,1-b][1,3]thiazol-7-yl]acetamide]"
6,< 50,"O=C(Cc1ccc(NC(=O)c2ccncc2)cc1)Nc1ncn2c(C(F)(F)F)csc12 [Example 62, N-[4-(2-oxo-2-{[3-(trifluoromethyl)imidazo[5,1-b][1,3]thiazol-7-yl]amino}ethyl)phenyl] isonicotinamide]"
7,< 50,"Cc1ccc(-c2ccc(CC(=O)Nc3ncn4c(C(F)(F)F)csc34)cc2)cn1 [Example 55, 2-[4-(6-methylpyridin-3-yl)phenyl]-N-[3-(trifluoromethyl)imidazo[5,1-b][1,3]thiazol-7-yl]acetamide]"
8,< 50,"NC(=O)c1sc2c(NC(=O)Cc3ccc4ccccc4c3)ncn2c1C(F)(F)F [Example 86, 7-[(Naphthalen-2-ylacetyl)amino]-3-(trifluoromethyl)imidazo[5,1-b][1,3]thiazole-2-carboxyamide]"
9,< 50,"O=C(Cc1ccc2[nH]ncc2c1)Nc1ncn2c(C(F)(F)F)csc12 [Example 37, 2-(1H-indazol-5-yl)-N-[3-(trifluoromethyl)imidazo[5,1-b][1,3]thiazol-7-yl]acetamide]"
10,< 50,"O=C(Cc1cccc(-c2cn[nH]c2)c1)Nc1ncn2c(C(F)(F)F)csc12 [Example 24, 2-[3-(1H-pyrazol-4-yl)phenyl]-N-[3-(trifluoromethyl)imidazo[5,1-b][1,3]thiazol-7-yl]acetamide]"
11,< 50,"O=C(Cc1ccc(-c2nnco2)cc1)Nc1ncn2c(C(F)(F)F)csc12 [Example 70, 2-[4-(1,3,4-oxadiazol-2-yl)phenyl]-N-[3-(trifluoromethyl)imidazo[5,1-b][1,3]thiazol-7-yl]acetamide]"
12,< 50,"O=C(Cc1ccc2[nH]cnc2c1)Nc1ncn2c(C(F)(F)F)csc12 [Example 73, 2-(1H-benzimidazol-5-yl)-N-[3-(trifluoromethyl)imidazo[5,1-b][1,3]thiazol-7-yl]acetamide]"
13,< 50,"O=C(Cc1ccc(Cl)nc1)Nc1ncn2c(C(F)(F)F)csc12 [Example 7, 2-(6-chloropyridin-3-yl)-N-[3-(trifluoromethyl)imidazo[5,1-b][1,3]thiazol-7-yl]acetamide]"
14,< 50,"O=C(Cc1ccc(NC(=O)c2ccccc2)cc1)Nc1ncn2c(C(F)(F)F)csc12 [Example 79, N-[4-(2-oxo-2-{[3-(trifluoromethyl)imidazo[5,1-b][1,3]thiazol-7-yl)amino}ethyl)phenyl] benzamide]"
